The values below come from PMC5554137, “Evaluation of novel factor Xa inhibitors from Oxya chinensis sinuosa with anti-platelet aggregation activity” (Scientific Reports, 2017).

The target in one data set is T1, FXa (Homo sapiens, UniProt P00742).
T1 construct: purchased Haematologic Technologies (Essex Junction, VT, USA)
The data set can be described thus: Chromogenic substrate assay, Ki determination, Factor Xa. Type of data set: biochemical. The settings on record: substrate S-2765 (Table 3); mean ± SD (n = 5). Here is the method:
(§1) The inhibitor (I) constants (Ki) were determined for the inhibition of a series of human enzymes (FXa, thrombin, trypsin, plasmin, protein Ca, streptokinase, tPA, and urokinase) by each compound. Chromogenic substrate assays were performed using a Labsystems IEMS (Cergy Pontoise, France) microtiter plate reader. In each assay, the compound was tested at a minimum of seven concentrations in duplicate to obtain an inhibition curve. Assays were performed according to the following general procedure. In a 96-well microtiter plate, 25 μL of compound, inhibitor solution or buffer was added to 50 μL of substrate. A volume of 25 μL of enzyme solution was added just before the plate was placed in the microtiter plate reader for 1 h at 37 °C. The hydrolysis of the substrate yields p-nitroaniline, which was continuously monitored spectrophotometrically at 405 nm. Data were collected and the initial rate of substrate hydrolysis [Vo (mOD/minute)] was calculated. Following Michaelis-Menten kinetics, the affinity of the enzyme for the substrate, in the absence of the inhibitor (Km) and in the presence of an inhibitor (Kp), was determined to be the negative inverse x-intercept of Lineweaver–Burk plots. The dissociation constant for inhibition (Ki) was calculated using the following equation: Ki = (Km·[I])/(Kp − Km) as described by Williams and Morrison[40].

A further data set concerns the target T2, α-Thrombin (Homo sapiens, UniProt P00734).
T2 construct: FXa converts prothrombin to thrombin; purchased Haematologic Technologies (Essex Junction, VT, USA)
In words: Chromogenic substrate assay, Ki determination, α-Thrombin. The settings on record: substrate S-2238. The format is biochemical. Here is the method:
as §1

A further data set addresses Trypsin. The data set can be described thus: Chromogenic substrate assay, Ki determination, Trypsin. Type of data set: biochemical, human. The settings on record: substrate S-2222. The method, then: as §1
A further data set deals with Plasmin (Homo sapiens, UniProt P00747). The data set can be described thus: Chromogenic substrate assay, Ki determination, Plasmin. The format is biochemical. The settings on record: substrate S-2251. Here is the method: as §1
Another data set concerns the target Protein Ca (Homo sapiens, UniProt P04070). The data set can be described thus: Chromogenic substrate assay, Ki determination, Protein Ca. The format is biochemical. Conditions: substrate S-2366. The method, then:
as §1

Data set [1] has as its target Streptokinase (Homo sapiens). In words: Chromogenic substrate assay, Ki determination, Streptokinase. The format is biochemical. The settings on record: substrate S-2251. Here is the method: as §1
For a further data set, the target named is tPA (Homo sapiens, UniProt P00750). The data set can be described thus: Chromogenic substrate assay, Ki determination, tPA. The settings on record: substrate S-2228. The format is biochemical. The method, then:
as §1

The target in a further data set is Urokinase (Homo sapiens, UniProt P00749). In words: Chromogenic substrate assay, Ki determination, Urokinase. The format is biochemical. The settings on record: substrate S-2444. Here is the method:
as §1

Data set [2] deals with C57BL/6 mice. In words: Ex vivo coagulation assay, aPTT. Type of data set: in vivo, mouse. The settings on record: intravenous, 38 to 193 µg/kg. The method, then:
(§2) To evaluate the effects of compounds 1–5 on coagulation parameters ex vivo, we measured the influence of the isolated compounds on activated partial thromboplastin time (aPTT) and prothrombin time (PT). […] The average circulating blood volume for mice is 72 mL/kg[21]. Because the average weight of mice used in this study was 27 g and the average blood volume was 2 mL, the dose of compounds 1–5 (38.6, 77.2, or 193.1 µg/kg) equaled a peripheral blood concentration of approximately 1, 2, and 5 µM, respectively.
Figure 4 Effects of compounds 1–4 on clotting and bleeding time. […] Fifteen minutes after the last administration, blood samples were collected and in vivo aPTT was measured. […] Accumulated bleeding times (including periods of re-bleeding) were recorded. […] Data are presented as means ± SD of three independent experiments. *p < 0.05 vs. vehicle alone, analyzed by one-way ANOVA, followed by Tukey multiple comparison testing.
Fifteen min after the administration of each compound or saline, blood was sampled, and plasma was obtained by centrifuging at 2,000 × g for 10 min at room temperature in order to measure prothrombin time (PT) and activated partial thromboplastin time (aPTT). The aPTT and PT were determined using a Thrombotimer (Behnk Elektronik, Norderstedt, Germany), according to the manufacturer’s instructions and as described previously. […] The clotting times were recorded. […]

Data set [3] deals with C57BL/6 mice. The data set can be described thus: In vivo clotting time (aPTT after four daily injections). The settings on record: daily intravenous injection for four consecutive days. More on the design: species or system mouse. Here is the method: as §2
Figure 4 Effects of compounds 1–4 on clotting and bleeding time. (A) One hour after administration (intravenous injection) of compound 1 (white box), 2 (light gray box), 3 (dark gray box), or 4 (black box), blood was collected from the mice and platelet-poor plasma (PPP) was obtained by centrifugation at 2,000 × g for 10 min at room temperature to test ex vivo activated partial thromboplastin time (aPTT). (B) Each group received a daily intravenous injection of the indicated compound for four consecutive days. Fifteen minutes after the last administration, blood samples were collected and in vivo aPTT was measured. […] Accumulated bleeding times (including periods of re-bleeding) were recorded. […] Data are presented as means ± SD of three independent experiments. *p < 0.05 vs. vehicle alone, analyzed by one-way ANOVA, followed by Tukey multiple comparison testing.

For data set [4], the system named is mouse platelet-rich plasma (PRP). In words: In vitro platelet aggregation induced by ADP. Type of data set: cell-based. Conditions: ADP 10 µM. Here is the method:
(§3) To study the effects of compounds 1–5 on platelet aggregation, we used mouse platelet-rich plasma (PRP) induced with various agonists as an in vitro model.
(§4) Figure 5 Effects of compounds 1–4 on agonist-induced platelet aggregation in vitro. Platelet-rich plasma (PRP) was preincubated for 5 min with different concentrations of compounds 1–4, or vehicle. Platelet aggregation was initiated with ADP (A, 10 µM), U46619 (B, 6 µM), or thrombin (C, 3 U/mL). D = 0.2% DMSO used as the vehicle control. Data are presented as means ± SD of three independent experiments. ^* p < 0.05 vs. vehicle alone, analyzed by one-way ANOVA, followed by Tukey multiple comparison testing.
(§5) The in vitro platelet aggregation assay was performed according to a previously reported method, [39]. Platelet rich plasma (PRP) was incubated with the indicated concentration of each compound in DMSO for 1, 3, 5, or 10 min. Samples were subsequently stimulated by ADP (10 μM), U46619 (6 μM), or thrombin (3 U/mL). Platelet aggregation was recorded using an aggregometer (Chronolog, Havertown, PA, USA).

The test system is the same in data set [5]. In words: In vitro platelet aggregation induced by U46619. The format is cell-based. The settings on record: U46619 6 µM. The method, then: as §3, §4, §5
Data set [6] shares this test system. In words: In vitro platelet aggregation induced by thrombin. The format is cell-based. The settings on record: thrombin 3 U/mL. Here is the method: as §3, §4, §5
Another data set has as its system platelet aggregation. Also noted: method as in PMID 20139357. Conditions: cited from earlier work.
A further data set has as its target thrombin (Homo sapiens, UniProt P00734). Also noted: method as in PMID 20139357. The settings on record: cited from earlier work.
Another data set deals with bleeding time models. Also noted: method as in PMID 20139357, PMID 15748242. The settings on record: antithrombotic doses below the ED50 required for antithrombotic efficacy; cited from earlier work.
The test system of the next data set is rat. More on the design: method as in PMID 20139357, PMID 15748242. Conditions: higher doses, rat tail-bleeding time model; cited from earlier work.
Data set [7] has as its system C57BL/6 mice. In words: FeCl3-induced arterial thrombosis mouse model. Type of data set: in vivo. The settings on record: FeCl3 injury, tirofiban 0.2 or 0.4 mg/kg (dose for this value not stated).

Sequence of tPA (P00750 36-562): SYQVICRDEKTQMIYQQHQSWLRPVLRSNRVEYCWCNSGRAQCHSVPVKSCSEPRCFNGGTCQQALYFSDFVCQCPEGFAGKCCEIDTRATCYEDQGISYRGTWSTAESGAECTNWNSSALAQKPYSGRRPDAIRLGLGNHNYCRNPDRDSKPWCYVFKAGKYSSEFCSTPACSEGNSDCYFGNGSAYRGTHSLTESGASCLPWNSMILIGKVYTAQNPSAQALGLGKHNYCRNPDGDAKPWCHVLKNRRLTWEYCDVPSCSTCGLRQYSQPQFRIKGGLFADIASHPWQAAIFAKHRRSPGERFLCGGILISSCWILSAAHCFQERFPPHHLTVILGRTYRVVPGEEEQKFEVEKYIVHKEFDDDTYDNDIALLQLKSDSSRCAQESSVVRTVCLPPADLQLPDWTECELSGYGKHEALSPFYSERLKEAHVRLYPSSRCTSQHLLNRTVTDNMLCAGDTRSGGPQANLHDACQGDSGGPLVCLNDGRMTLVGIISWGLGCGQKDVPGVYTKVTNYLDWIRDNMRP
T1 sequence (P00742 235-488 limits assumed): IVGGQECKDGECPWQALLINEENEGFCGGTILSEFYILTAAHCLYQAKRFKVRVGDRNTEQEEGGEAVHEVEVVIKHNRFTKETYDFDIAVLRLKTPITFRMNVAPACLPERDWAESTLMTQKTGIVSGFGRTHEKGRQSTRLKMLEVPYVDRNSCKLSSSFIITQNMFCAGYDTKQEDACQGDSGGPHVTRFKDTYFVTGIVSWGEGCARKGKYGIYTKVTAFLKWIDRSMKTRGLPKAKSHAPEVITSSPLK
T1 sequence (P00742 41-179 limits assumed): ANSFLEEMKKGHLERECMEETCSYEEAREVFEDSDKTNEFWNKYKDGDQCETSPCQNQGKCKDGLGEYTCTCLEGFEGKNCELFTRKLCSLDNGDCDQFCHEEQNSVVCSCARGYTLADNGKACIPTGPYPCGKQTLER
Sequence of Protein Ca (P04070 212-461 limits assumed): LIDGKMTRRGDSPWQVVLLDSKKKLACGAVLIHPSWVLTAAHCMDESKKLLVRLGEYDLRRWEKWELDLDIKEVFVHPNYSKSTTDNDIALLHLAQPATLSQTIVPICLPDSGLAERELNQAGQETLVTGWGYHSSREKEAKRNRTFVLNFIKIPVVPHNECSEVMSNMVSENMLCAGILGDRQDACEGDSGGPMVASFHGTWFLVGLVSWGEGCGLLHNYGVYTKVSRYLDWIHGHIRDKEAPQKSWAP
Sequence of Protein Ca (P04070 43-197 limits assumed): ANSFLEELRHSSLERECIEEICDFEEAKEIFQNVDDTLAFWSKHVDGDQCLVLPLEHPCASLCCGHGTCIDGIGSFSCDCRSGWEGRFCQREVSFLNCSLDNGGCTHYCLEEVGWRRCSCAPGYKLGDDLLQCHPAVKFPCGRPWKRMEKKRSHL
Sequence of Plasmin (P00747 581-810 limits assumed): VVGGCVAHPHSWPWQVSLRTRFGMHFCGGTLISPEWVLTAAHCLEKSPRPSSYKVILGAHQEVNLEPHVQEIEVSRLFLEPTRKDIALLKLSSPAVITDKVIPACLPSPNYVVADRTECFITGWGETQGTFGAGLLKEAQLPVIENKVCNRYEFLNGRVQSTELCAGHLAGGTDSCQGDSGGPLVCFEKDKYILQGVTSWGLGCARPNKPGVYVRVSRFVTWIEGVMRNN
Sequence of Plasmin (P00747 97-580 limits assumed): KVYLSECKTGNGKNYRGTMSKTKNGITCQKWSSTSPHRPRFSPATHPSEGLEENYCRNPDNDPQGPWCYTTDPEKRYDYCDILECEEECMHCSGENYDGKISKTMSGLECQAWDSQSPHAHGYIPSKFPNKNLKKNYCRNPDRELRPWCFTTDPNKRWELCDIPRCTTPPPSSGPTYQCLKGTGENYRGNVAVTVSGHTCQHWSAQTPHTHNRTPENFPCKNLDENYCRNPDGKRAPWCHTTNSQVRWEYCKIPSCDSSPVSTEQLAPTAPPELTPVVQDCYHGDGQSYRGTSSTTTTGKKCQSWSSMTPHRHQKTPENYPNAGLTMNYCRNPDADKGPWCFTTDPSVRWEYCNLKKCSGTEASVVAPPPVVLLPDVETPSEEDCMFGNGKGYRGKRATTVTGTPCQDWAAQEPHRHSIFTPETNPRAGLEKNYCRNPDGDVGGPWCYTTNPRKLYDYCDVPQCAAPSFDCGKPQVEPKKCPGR
Sequence of Streptokinase (Homo sapiens) (P00747 581-810 limits assumed): as the sequence (P00747 581-810 limits assumed) above

On to `CC(=O)N/C=C/c1ccc2c(c1)O[C@H](c1ccc(O)c(O)c1)[C@@H](NC(C)=O)O2` [Compound 5, (2 R,3 S)-2-(3′,4′-dihydroxyphenyl)-3-acetylamino-7-(N-acetyl-2″-aminethylene)-1,4-benzodioxane], for which the Ki (at FXa; on α-Thrombin; on Trypsin; on Plasmin; at Protein Ca; in data set [1]) was over 250 µM throughout. Also, the Ki at tPA and at Urokinase was over 250 µM each time. Also, in the data set on C57BL/6 mice [2], the “activated partial thromboplastin time (aPTT), ex vivo” value is “did not affect”. The “blood clotting time in vivo (anticoagulant effect)” value in the data set on C57BL/6 mice [3] is given as “not”. Moreover, the “platelet aggregation induced by ADP” value in data set [4] is “did not affect”. In [5], the “platelet aggregation induced by U46619” value is given as “did not affect”. In addition, the thrombin-induced platelet aggregation entry in data set [6] was “did not affect”.
As to `O=C(NC[C@H]1CN(c2ccc(N3CCOCC3=O)cc2)C(=O)O1)c1ccc(Cl)s1` [rivaroxaban], the “platelet aggregation induced by ADP, thrombin, or U46619” value in the data set on platelet aggregation was “did not affect”. Further, the generation of thrombin entry at thrombin was “prolonged”. Also, the bleeding times entry in the data set on bleeding time models was “not significantly affected”; with rat, “dose-dependently prolonged”.
`CCCCS(=O)(=O)N[C@@H](Cc1ccc(OCCCCC2CCNCC2)cc1)C(=O)O` [tirofiban]: in the data set on C57BL/6 mice [7], the “time to growth of large thrombi” value is 61.1 ± 5.1 min.
